Experiments:
Experiment in all cases: biochemical
Parameters in all cases: radiometric methyltransferase selectivity assay with tritiated SAM, per cent activity
Details in all cases: read-out: % of control remaining
PRMT6 = PRMT6 (Homo sapiens, UniProt Q96LA8)
Summary of the method: (§1)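 Radiometric methyltransferase assays with ³H-SAM and substrate near apparent Km, compound tested at 1 and 10 μM. Methyl incorporation into biotinylated substrate read by scintillation proximity after guanidine quench; no-compound = 100%, no-enzyme = 0% activity.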

SETDB1 = SETDB1 (Homo sapiens, UniProt Q15047)
Summary of the method: as §1

SUV39H2 = SUV39H2 (Homo sapiens, UniProt Q9H5I1)
Summary of the method: as §1

PRMT1 = PRMT1 (Homo sapiens, UniProt Q99873)
Summary of the method: as §1

GLP = molecular target: T1, GLP (Homo sapiens, UniProt Q9H9B1)
T1 construct: gene EHMT1
T1 sequence (Q9H9B1 1-1298): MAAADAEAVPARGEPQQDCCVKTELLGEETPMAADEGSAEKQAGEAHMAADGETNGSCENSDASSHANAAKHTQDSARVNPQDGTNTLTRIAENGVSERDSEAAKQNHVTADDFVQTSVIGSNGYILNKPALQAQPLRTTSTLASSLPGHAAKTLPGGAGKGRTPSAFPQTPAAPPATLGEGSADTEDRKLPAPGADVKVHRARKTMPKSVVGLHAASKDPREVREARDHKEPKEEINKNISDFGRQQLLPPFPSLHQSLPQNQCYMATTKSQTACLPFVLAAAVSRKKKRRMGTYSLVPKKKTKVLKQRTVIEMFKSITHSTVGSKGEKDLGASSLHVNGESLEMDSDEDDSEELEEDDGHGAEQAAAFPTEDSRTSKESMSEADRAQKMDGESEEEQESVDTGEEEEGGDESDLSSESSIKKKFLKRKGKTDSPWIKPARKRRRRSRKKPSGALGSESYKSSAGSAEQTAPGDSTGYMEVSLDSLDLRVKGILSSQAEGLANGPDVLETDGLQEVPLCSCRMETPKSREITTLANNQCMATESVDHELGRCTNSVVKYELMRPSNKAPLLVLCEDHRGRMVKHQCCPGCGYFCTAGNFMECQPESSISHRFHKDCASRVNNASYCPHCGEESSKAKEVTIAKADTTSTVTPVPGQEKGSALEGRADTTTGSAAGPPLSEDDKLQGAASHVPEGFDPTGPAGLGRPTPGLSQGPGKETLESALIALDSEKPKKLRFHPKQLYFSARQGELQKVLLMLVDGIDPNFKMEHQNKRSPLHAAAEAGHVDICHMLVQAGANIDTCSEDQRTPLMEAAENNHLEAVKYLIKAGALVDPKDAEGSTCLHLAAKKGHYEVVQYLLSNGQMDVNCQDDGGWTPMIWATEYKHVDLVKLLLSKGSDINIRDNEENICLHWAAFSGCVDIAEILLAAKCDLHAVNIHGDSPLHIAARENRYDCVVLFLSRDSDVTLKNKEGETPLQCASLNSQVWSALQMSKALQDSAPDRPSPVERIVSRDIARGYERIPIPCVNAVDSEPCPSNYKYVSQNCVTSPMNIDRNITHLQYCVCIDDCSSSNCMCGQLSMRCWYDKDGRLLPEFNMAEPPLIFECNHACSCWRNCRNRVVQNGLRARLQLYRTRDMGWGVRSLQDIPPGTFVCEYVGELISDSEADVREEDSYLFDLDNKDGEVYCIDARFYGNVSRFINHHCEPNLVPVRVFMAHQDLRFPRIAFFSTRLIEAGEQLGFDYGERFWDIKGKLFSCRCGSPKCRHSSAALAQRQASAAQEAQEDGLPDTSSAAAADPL
Summary of the method: as §1

SMYD2 = SMYD2 (Homo sapiens, UniProt Q9NRG4)
Summary of the method: as §1

Chain of PRMT1 (Q99873 whole entry): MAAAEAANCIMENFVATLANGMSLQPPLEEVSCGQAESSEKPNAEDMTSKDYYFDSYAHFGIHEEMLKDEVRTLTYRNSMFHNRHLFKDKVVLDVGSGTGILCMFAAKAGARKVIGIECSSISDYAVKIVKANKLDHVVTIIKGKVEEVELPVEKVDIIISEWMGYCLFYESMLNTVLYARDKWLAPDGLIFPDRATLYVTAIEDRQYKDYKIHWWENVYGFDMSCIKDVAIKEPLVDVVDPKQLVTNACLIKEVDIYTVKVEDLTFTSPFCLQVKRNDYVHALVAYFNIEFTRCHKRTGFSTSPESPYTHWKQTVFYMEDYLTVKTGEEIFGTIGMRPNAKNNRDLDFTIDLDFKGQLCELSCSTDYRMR
Chain of SMYD2 (Q9NRG4 whole entry): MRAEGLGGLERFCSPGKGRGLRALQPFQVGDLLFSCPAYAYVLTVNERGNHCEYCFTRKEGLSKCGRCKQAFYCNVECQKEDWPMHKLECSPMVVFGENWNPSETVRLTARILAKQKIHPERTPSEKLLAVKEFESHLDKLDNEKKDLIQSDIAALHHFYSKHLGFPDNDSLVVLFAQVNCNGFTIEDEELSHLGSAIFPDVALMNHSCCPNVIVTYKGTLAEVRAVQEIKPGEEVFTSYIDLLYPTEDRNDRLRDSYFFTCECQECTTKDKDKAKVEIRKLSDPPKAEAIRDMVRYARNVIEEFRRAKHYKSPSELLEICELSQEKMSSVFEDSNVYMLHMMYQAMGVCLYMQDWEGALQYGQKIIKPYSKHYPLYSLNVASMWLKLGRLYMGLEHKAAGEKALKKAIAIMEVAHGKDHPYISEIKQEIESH
Chain of PRMT6 (Q96LA8 whole entry): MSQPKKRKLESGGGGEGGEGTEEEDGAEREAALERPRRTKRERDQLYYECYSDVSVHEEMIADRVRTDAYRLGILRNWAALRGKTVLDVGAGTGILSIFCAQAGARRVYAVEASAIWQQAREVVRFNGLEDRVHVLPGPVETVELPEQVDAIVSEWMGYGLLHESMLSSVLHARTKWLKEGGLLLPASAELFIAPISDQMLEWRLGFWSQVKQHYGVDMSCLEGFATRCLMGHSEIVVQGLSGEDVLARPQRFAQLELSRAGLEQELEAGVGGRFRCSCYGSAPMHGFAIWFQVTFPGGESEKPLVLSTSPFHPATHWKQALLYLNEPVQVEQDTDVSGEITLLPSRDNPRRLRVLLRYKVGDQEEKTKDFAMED
Chain of SUV39H2 (Q9H5I1 whole entry): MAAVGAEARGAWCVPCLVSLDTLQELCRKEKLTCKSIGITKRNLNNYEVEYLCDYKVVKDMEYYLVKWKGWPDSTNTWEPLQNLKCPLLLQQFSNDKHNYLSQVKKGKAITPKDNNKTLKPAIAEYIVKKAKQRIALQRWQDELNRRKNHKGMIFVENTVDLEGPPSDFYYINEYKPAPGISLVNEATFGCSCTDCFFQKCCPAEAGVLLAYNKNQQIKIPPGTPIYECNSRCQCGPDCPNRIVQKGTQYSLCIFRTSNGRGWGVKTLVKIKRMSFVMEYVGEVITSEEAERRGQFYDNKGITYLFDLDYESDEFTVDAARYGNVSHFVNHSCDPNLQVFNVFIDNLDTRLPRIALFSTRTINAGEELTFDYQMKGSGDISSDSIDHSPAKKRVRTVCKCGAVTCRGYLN

Compound	remaining activity at 1 µM (PRMT6)	remaining activity at 10 µM (PRMT6)	remaining activity at 1 µM (SETDB1)	remaining activity at 10 µM (SETDB1)	remaining activity at 1 µM (SUV39H2)	remaining activity at 10 µM (SUV39H2)	remaining activity at 1 µM (PRMT1)	remaining activity at 10 µM (PRMT1)	remaining activity at 1 µM (GLP)	remaining activity at 10 µM (GLP)	remaining activity at 1 µM (SMYD2)	remaining activity at 10 µM (SMYD2)
CC1(C)O[C@@H]2[C@H](O1)[C@@H](CSCCCCNCc1cccc(-c3ccc(Cl)cc3)c1)O[C@H]2n1cnc2c(N)ncnc21 [SGC8158N]	94%	87%	99%	91%	103%	78%	94%	91%	95%	90%	105%	104%
Nc1ncnc2c1ncn2[C@@H]1O[C@H](CSCCCCNCc2cccc(-c3ccc(Cl)cc3)c2)[C@@H](O)[C@H]1O [SGC8158]	100%	58%	103%	99%	103%	102%	104%	67%	99%	95%	101%	84%

Source: article PMC7224190, “Pharmacological inhibition of PRMT7 links arginine monomethylation to the cellular stress response” (Nature Communications, 2020)
